In general, Ki refers to the dissociation constant of the complex between target and ligand, obtained from inhibition or displacement. Usually melting point stands for the temperature, or range, at which the solid turns liquid.

The record followed here is patent US20110172274A1, “FLUORO-SUBSTITUTED 3,4-DIARYL-4,5-DIHYDRO-1H-PYRAZOLE-1-CARBOXAMIDINE DERIVATIVES HAVING CB1-ANTAGONISTIC ACTIVITY” (priority 2008, published 2011).

Data set [1] has as its target T1, human cannabinoid CB1 receptors (Homo sapiens, UniProt P21554).
T1 construct: expressed in transfected cells; host or cells: Chinese hamster ovary (CHO) cells, membrane preparations
In words: In vitro affinity for cannabinoid-CB1 receptors, [3H]CP-55,940 radioligand binding, CHO cell membranes. To be noted: for factor of higher affinity for human CB1 receptors than non-fluorinated analog compound 24: (S)-(-)-enantiomers versus compound 24; for Ki: CHO membranes, [3H]CP-55,940, means of at least two independent experiments, read-out: receptor binding h-CB1 receptor Ki. Here is the method:
In vitro affinity for cannabinoid-CB1 receptors was determined using membrane preparations of Chinese hamster ovary (CHO) cells wherein human cannabinoid CB1 receptors were stably transfected in conjunction with [^3H]CP-55,940 as radioligand. After incubation of a freshly prepared cell membrane preparation with the [^3H]-ligand, with or without addition of compounds of the invention, separation of bound and free ligand was performed by filtration over glassfiber filters. Radioactivity on the filter was measured by liquid scintillation counting. The binding data were either obtained by CEREP (128, rue Danton, 92500 Rueil-Malmaison, France) or at Solvay Pharmaceuticals B.V. (C. J. van Houtenlaan 36, 1381 CP Weesp, The Netherlands).

Data set [2] concerns the target T2, human cannabinoid CB2 receptors (Homo sapiens, UniProt P34972).
T2 construct: expressed in transfected cells; host or cells: CHO cells, membrane preparations
The data set can be described thus: In vitro affinity for cannabinoid-CB2 receptors, [3H]CP-55,940 radioligand binding, CHO cell membranes. To be noted: means of at least two independent experiments, read-out: receptor binding h-CB2 receptor Ki. The procedure: In vitro affinity for cannabinoid-CB2 receptors was determined using membrane preparations of CHO cells wherein human cannabinoid CB2 receptors were stably transfected in conjunction with [^3H]CP-55,940 as radioligand. After incubation of a freshly prepared cell membrane preparation with the [^3H]-ligand, with or without addition of compounds of the invention, separation of bound and free ligand was performed by filtration over glassfiber filters. Radioactivity on the filter was measured by liquid scintillation counting.

The target of a further data set is T3, rat CB1 receptor (Rattus norvegicus, UniProt P20272).
T3 construct: Male normotensive rats (225-300 g; Harlan, Horst, The Netherlands) were anaesthetized; from tissue; host or cells: whole animal: male normotensive rats (Harlan)
The data set can be described thus: In vivo cannabinoid-CB1 receptor antagonism, CP-55,940-induced hypotension test in rat. To be noted: for ED50: rat, p.o., anaesthetized male rats, CP-55,940 0.1 mg/kg i.v., read-out: blood pressure rat CB1 receptor ED50 (mg/kg, p.o.). Here is the method:
In vivo cannabinoid-CB1 receptor antagonism was assessed with the CP-55,940-induced hypotension test in rat. Male normotensive rats (225-300 g; Harlan, Horst, The Netherlands) were anaesthetized with pentobarbital (80 mg/kg ip). Blood pressure was measured, via a cannula inserted into the left carotid artery, by means of a Spectramed DTX-plus pressure transducer (Spectramed B.V., Bilthoven, The Netherlands). After amplification by a Nihon Kohden Carrier Amplifier (Type AP-621G; Nihon Kohden B.V., Amsterdam, The Netherlands), the blood pressure signal was registered on a personal computer (Compaq Deskpro 386s), by means of a Po-Ne-Mah data-acquisition program (Po-Ne-Mah Inc., Storrs, USA). Heart rate was derived from the pulsatile pressure signal. All compounds were administered orally as a microsuspension in 1% methylcellulose 30 minutes before induction of the anesthesia, 60 minutes prior to administration of the CB1 receptor agonist CP-55,940. The injection volume was 10 ml/kg. After haemodynamic stabilization the CB1 receptor agonist CP-55,940 (0.1 mg/kg i.v.) was administered and the hypotensive effect established (Wagner 2001).

A value given as a limit tells only on which side of the number the result lay.

T2 sequence (P34972 whole entry): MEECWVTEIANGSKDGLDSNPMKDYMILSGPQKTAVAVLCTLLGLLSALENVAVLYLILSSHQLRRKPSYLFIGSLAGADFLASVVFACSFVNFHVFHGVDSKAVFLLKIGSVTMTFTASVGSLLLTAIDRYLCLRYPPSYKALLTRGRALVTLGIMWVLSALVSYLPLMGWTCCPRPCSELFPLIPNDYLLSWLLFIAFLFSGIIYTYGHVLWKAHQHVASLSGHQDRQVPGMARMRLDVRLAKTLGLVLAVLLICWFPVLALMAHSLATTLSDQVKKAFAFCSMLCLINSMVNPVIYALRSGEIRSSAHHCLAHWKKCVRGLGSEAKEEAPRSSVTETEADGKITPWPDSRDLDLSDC
T3 sequence (P20272 whole entry): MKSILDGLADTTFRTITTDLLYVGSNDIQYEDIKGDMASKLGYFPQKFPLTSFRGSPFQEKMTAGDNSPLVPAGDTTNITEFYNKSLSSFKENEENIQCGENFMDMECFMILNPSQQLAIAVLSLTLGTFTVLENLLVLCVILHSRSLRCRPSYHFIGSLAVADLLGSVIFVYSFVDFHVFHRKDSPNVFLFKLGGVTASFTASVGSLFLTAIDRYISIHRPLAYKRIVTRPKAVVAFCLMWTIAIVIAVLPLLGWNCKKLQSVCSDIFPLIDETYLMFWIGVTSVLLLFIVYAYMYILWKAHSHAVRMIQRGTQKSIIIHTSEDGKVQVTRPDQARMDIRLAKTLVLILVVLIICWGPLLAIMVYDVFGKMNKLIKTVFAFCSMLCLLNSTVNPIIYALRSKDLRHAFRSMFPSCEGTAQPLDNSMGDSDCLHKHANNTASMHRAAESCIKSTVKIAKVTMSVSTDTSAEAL
T1 sequence (P21554 whole entry): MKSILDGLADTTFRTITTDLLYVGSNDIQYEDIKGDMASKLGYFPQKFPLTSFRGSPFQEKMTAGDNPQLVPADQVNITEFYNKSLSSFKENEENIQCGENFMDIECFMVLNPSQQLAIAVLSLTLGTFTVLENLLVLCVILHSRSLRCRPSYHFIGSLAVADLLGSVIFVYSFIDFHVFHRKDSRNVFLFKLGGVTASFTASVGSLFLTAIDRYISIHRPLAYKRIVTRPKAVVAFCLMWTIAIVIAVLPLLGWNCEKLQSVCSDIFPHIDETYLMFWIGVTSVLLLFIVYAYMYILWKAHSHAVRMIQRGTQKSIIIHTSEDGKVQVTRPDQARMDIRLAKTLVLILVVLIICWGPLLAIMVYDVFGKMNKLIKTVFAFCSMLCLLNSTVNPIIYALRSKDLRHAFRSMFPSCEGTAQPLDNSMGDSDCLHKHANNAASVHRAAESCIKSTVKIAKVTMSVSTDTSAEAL

Regarding `CN=C(NS(=O)(=O)N1CCC(C(F)(F)F)CC1)N1C[C@H](c2ccccc2)C(c2ccc(Cl)cc2)=N1` [compound 9, (−)-(4S)—N-[(4-(Trifluoromethyl)piperidin-1-yl)sulfonyl]-N′-methyl-3-(4-chlorophenyl)-4-phenyl-4,5-dihydro-(1H)-pyrazole-1-carboxamidine], in data set [1], the “factor of higher affinity for human CB1 receptors than non-fluorinated analog compound 24” value worked out at 19 fold. In addition, the Ki came out at 3 nM in data set [1] and 316 nM in data set [2]. Further, at rat CB1 receptor (oral administration, CP-55,940-induced hypotension test), the “in vivo activity after oral administration compared with compound 24” value was “more active”. In addition, the ED50 at rat CB1 receptor was 2 mg/kg.

With `CCN=C(NS(=O)(=O)N1CCC(F)(F)CC1)N1CC(c2ccccc2)C(c2ccc(Cl)cc2)=N1` (racemic) [compound 6, N-[(4,4-Difluoropiperidin-1-yl)sulfonyl]-N′-ethyl-3-(4-chlorophenyl)-4-phenyl-4,5-dihydro-(1H)-pyrazole-1-carboxamidine], the inhibition constant Ki in data set [1] turned out to be 10 nM.

For the compound `CN/C(=N/S(=O)(=O)N1CCCCC1)N1C[C@H](c2ccccc2)C(c2ccc(Cl)cc2)=N1` [compound 24, reference compound], the Ki is 58 nM in data set [1] and 3500 nM in data set [2]. For the same compound, the ED50 at rat CB1 receptor worked out at 8 mg/kg.

On to `CN(C)/C(=N/S(=O)(=O)N1CCC(F)(F)CC1)N1CC(c2ccccc2)C(c2ccc(Cl)cc2)=N1` (centres unmarked) [compound 7, N^2-[(4,4-Difluoropiperidin-1-yl)sulfonyl]-N^1-dimethyl-3-(4-chlorophenyl)-4-phenyl-4,5-dihydro-(1H)-pyrazole-1-carboxamidine], for which the inhibitory constant (Ki) in data set [1] stood at 25 nM.

Turning to `CN=C(NS(=O)(=O)N1CCC(F)(F)CC1)N1C[C@H](c2ccccc2)C(c2ccc(Cl)cc2)=N1` [compound 8, (−)-(4S)—N-[(4,4-difluoropiperidin-1-yl)sulfonyl]-N′-methyl-3-(4-chlorophenyl)-4-phenyl-4,5-dihydro-(1H)-pyrazole-1-carboxamidine], in data set [1], the “factor of higher affinity for human CB1 receptors than non-fluorinated analog compound 24” value turned out to be 12 fold and the Ki was 5 nM.

In the case of `CN=C(NS(=O)(=O)N1CCC(C(F)(F)F)CC1)N1C[C@@H](c2ccccc2)C(c2ccc(Cl)cc2)=N1` [compound 10, (+)-(4R)—N-[(4-(Trifluoromethyl)piperidin-1-yl)sulfonyl]-N′-methyl-3-(4-chlorophenyl)-4-phenyl-4,5-dihydro-(1H)-pyrazole-1-carboxamidine], the Ki in data set [1] was 125 nM; in data set [2] it was more than 1000 nM. Besides, in data set [1] (distomer versus eutomer compound 9), the “affinity for human CB1 receptors, fold less than that of compound 9” value is on record as “about 40 fold”. Further, the “in vivo activity in the hypotension test” value on rat CB1 receptor (given at 30 mg/kg) was “devoid of in vivo activity”. Moreover, at rat CB1 receptor, the ED50 was more than 30 mg/kg.

Consider `CN/C(=N\S(=O)(=O)N1CCC(C(F)(F)F)CC1)N1CC(c2ccccc2)C(c2ccc(Cl)cc2)=N1` (racemic) [compound 2, N-[(4-(Trifluoromethyl)piperidin-1-yl)sulfonyl]-N′-methyl-3-(4-chlorophenyl)-4-phenyl-4,5-dihydro-(1H)-pyrazole-1-carboxamidine], for which the inhibitory constant (Ki) in data set [1] is 3 nM.

On to `CN/C(=N/S(=O)(=O)N1CCCCC1)N1CC(c2ccccc2)C(c2ccc(Cl)cc2)=N1` (centres unmarked) [compound 21, reference compound], for which the inhibition constant (Ki) in data set [1] was 152 nM.

For the compound `CNC(=NS(=O)(=O)N1CCCCC1)N1C[C@@H](c2ccccc2)C(c2ccc(Cl)cc2)=N1` [compound 25, reference compound], the Ki in data set [1] is 763 nM.

On to `CN=C(NS(=O)(=O)N1CCC(F)(F)CC1)N1CC(c2ccccc2)C(c2ccc(Cl)cc2)=N1` (racemic) [compound 1, N-[(4,4-difluoropiperidin-1-yl)sulfonyl]-N′-methyl-3-(4-chlorophenyl)-4-phenyl-4,5-dihydro-(1H)-pyrazole-1-carboxamidine], for which the Ki in data set [1] stood at 10 nM.

For `CNC(=NS(=O)(=O)N1CCC(F)CC1)N1CC(c2ccccc2)C(c2ccc(Cl)cc2)=N1` (racemic) [compound 3, N-[(4-Fluoropiperidin-1-yl)sulfonyl]-N′-methyl-3-(4-chlorophenyl)-4-phenyl-4,5-dihydro-(1H)-pyrazole-1-carboxamidine], the Ki in data set [1] turned out to be 5 nM.

The compound `CN=C(NS(=O)(=O)N1CCCC(F)C1)N1CC(c2ccccc2)C(c2ccc(Cl)cc2)=N1` (racemic) [compound 4, N-[(3-Fluoropiperidin-1-yl)sulfonyl]-N′-methyl-3-(4-chlorophenyl)-4-phenyl-4,5-dihydro-(1H)-pyrazole-1-carboxamidine] gave a melting point of 170 to 171 °C. In addition, in data set [1], the Ki worked out at 16 nM.

In turn, `CN=C(NS(=O)(=O)N1CCCC(F)(F)C1)N1CC(c2ccccc2)C(c2ccc(Cl)cc2)=N1` (racemic) [compound 5, N-[(3,3-Difluoropiperidin-1-yl)sulfonyl]-N′-methyl-3-(4-chlorophenyl)-4-phenyl-4,5-dihydro-(1H)-pyrazole-1-carboxamidine] displayed a melting point of 166 to 167 °C. Further, in data set [1], the Ki came out at 10 nM.
